Assay results reported in patent US6979687B1, “Theophylline-based soluble guanylyl cyclase activators KMUP-1 analogues enhanced cyclic GMP and K+ channel activities on rabbit corpus cavernosum smooth muscle and intercavernous pressure activities” (Cho-Jan Liang, priority 2002, dated 2005).
Read-outs that look alike come from different tables or passages of the source.

Key:
[1] = system: rabbit corpus cavernosum smooth muscle; assay: Rabbit corpus cavernosum smooth muscle relaxation, organ bath; type: cell-based
Description: (§1) Disruption of endothelium The endothelium lining the lacunar spaces of rabbit corpus cavernosum was disrupted and/or removed by detergent treatment using a modification of a protocol for blood vessels, described elsewhere (kim N. et al., J. Clin. Invest., 88, 112–118, 1991). The intact, isolated penis was placed in a tray containing chilled physiological salt solution (PSS). A 21-guage minicatheter was inserted into each corporal body at the proximal end of the penis. A third minicatheter was inserted into the distal end, below the glans penis, where the right and left corpora communicate. While the distal and one proximal minicatheter were clamped, 3 ml of CHAPS (wt vol.^−) in saline was infused into the remaining proximal catheter. After a short interval (˜20 s), the clamped minicatheters were opened and the preparation was washed by infusion of saline. The corpora cavernosa were then removed and tested for endothelial integrity.
Tissue procurement and organ bath experiments Male rabbits were killed with pentobarbital and their penises excised rapidly and cut longitudinally into equal strips to give 3–6 segments. These segments were incubated in Kerbs-bicarbontate solution (NaCl, 118 mM; NaHCO3, 25 mM; KCl, 4.7 mM; KH2PO4, 1.2 mM; MgSO4, 1.2 mM; glucose, 11 mM; CaCl2, 2.5 mM; pH 7.3–7.4) maintained at 37° C. and aerated with 95% O2 and 5% CO2. Isometric tension was recorded with a force displacement transducer (UGO BASILE, Model 7004, Italy). Rabbit corpus cavernosum smooth muscles were stretched to a resting tension of 2 g and then contracted with phenylephrine (PE, 10 μM). Tissues were also treated with guanethidine (10 μM) to block contractions caused by noradrenaline, released from adrenergic neuron, and treated with atropine (1 μM) to prevent muscarinic effects caused by acetylcholine. When the stable constriction to phenylephrine was reached, concentration-response curves to KMUP-1 (0.001–10 μM) were constructed. Data were expressed as a percentage of the maximum contractile response to phenylephrine. To examine the possible action mechanisms of KMUP-1, the rabbit corpus cavernosum smooth muscles were pretreated with sGC (soluble guanylyl cyclase) inhibitors ODQ (1 μM), a NOS (nitric oxide synthase) inhibitor L-NAME (100 μM), a K^+ channel blocker Tetraethylammonium (TEA, 10 mM), a KATP channel blocker glibenclamide (1 μM), a voltage-dependent K^+ channel blocker 4-AP (100 μM) and Ca^2+-dpendent K^+ channel blockers apamin (1 μM) and charybdotoxin (0.1 μM) for 30 min prior to the addition of KMUP-1. To observe whether the rabbits corpus cavernosum smooth muscle relaxation of KMUP-1 are affected by a nonselective PDE (phosphodiesterase) inhibitor, we investigated the action of KMUP-1 in the presence of IBMX (0.5 μM). In another experiment, rabbit corpus cavernosum smooth muscles were preconstricted with 60 mM KCl. The KCl solution was prepared by substituting NaCl with KCl (60 mM) in an equimolar amount.
as §1, with “(kim” for “(kim N.”, “al.,” for “al., J. Clin. Invest., 88, 112–118,”, “vol.^−1)” for “vol.^−)”, “integrity. […]” for “integrity.”

[2] = system: intracavernous pressure of rabbits; settings: for DT, duration of tumescence / ΔICP, peak increased intracavernous pressure: n=8; for intracavernous pressure, dose dependence: 0.2, 0.4, 0.6 mg kg−1 intracavernous
Procedure: Measurement of intracavernous pressure Male rabbits were used for the investigation. After sedation with an intramuscular injection of ketamine (10 mg kg^−1), the rabbits were anaesthetized with intraperitoneal pentobarbital (30 mg kg^−1) and maintained with 10 mg kg^−1 if needed. The animals breathed spontaneously. The rabbits were then placed in the supine position, and the body temperature was maintained at 37° C. The femoral artery was cannulated for continuous monitoring of systemic arterial pressure (SAP) and heart rate (HR) via a pressure transducer (Spectramed, Model P10EZ, U.S.A.). Under sterile conditions, the skin overlying the penis was incised and the corpora cavernosum was exposed at the root of the penis. A 25-gunge needle was inserted into the corpus cavernosum smooth muscles for pressure recording. The needle was connected to a three-way stopcock, thus permitting the intracavernous injection of the drugs. The tube was filled with heparinized saline (50 IU 2 h^−1) to prevent clotting.
Normal saline in increasing volumes (0.05, 0.1, 0.2 ml) was injected in four rabbits as a control group. […] In order to minimize the effect of the previous drug, the cavernous body was flushed with 0.2 ml normal saline before each injection and the time interval between each injection was at least 1.5 h.
Measurement of intracavernous pressure Male rabbits were used for the investigation. After sedation with an intramuscular injection of ketamine (10 mg kg^−1), the rabbits were anaesthetized with intraperitoneal pentobarbital (30 mg kg^−1) and maintained with 10 mg kg^−1 if needed. The animals breathed spontaneously. The rabbits were then placed in the supine position, and the body temperature was maintained at 37° C. The femoral artery was cannulated for continuous monitoring of systemic arterial pressure (SAP) and heart rate (HR) via a pressure transducer (Spectramed, Model P10EZ, U.S.A.). Under sterile conditions, the skin overlying the penis was incised and the corpora cavernosum was exposed at the root of the penis. A 25-gunge needle was inserted into the CCSMs for pressure recording. The needle was connected to a three-way stopcock, thus permitting the intracavernous injection of the drugs. The tube was filled with heparinized saline (50 IU 2 h^−1) to prevent clotting.

[3] = system: rabbit corpus cavernosum smooth muscle cells; assay: Intracellular cGMP content in rabbit corpus cavernosum smooth muscle cells; type: cell-based; settings: for cGMP levels: 0.01–10 μM; for cGMP levels / guanosine 3′,5′-cyclic monophosphate levels: in the presence of IBMX (100 μM); for guanosine 3′,5′-cyclic monophosphate levels: 0.1, 1.0, 10, 100 μM
Procedure: (§2) Culture of rabbit corpus cavernosum smooth muscle cells Rabbit corpus cavernosum smooth muscles were obtained as sterile surgical specimens, the tissue was washed and cut into 1 to 2 mm pieces and placed into culture dishes with Dulbecco's modified Eagle's medium (DMEM) containing 20% fetal bovine serum (FBS), penicillin (100 U ml^−1), streptomycin (100 U ml^−1) and 2 mM Glutamine. After explants attached to the culture dish, usually 1 to 2 days, DMEM (Dulbecco's modified Eagle's medium) supplement with 10% FBS, penicillin, streptomycin, and glutamine were added. Smooth muscle cells migrated out from the explants in 3–5 days. At this time, the explants were removed, and cells were allowed to achieve confluence. Cells were detached using 0.05% trypsin, 0.02% EDTA at 37° C. for 5 minutes to establish secondary cultures. Cultures were maintained for no more than 4 passages. Cellular homogeneity was further confirmed by the presence of smooth muscle specific α-myosin and α-actin immunoreactivity. Indirect immunofluorescence staining for a variety of antigens was carried out by first plating the cells on chamber slides fixing the cells in 3.7% formaldehyde-phosphate buffered saline for 10 minutes and permeabilizing the cells with phosphate buffered saline 0.1% Triton X-100. Cells were then stained with either a mouse monoclonal antibody directed against the amino terminal 10 amino acids of α-smooth muscle actin and α-myosin (Moreland R. B. et al., J Urol., 153, 826–834, 1995).
Measurement of intracellular guanosine 3′,5′-cyclic monophosphate content Intracellular cGMP concentrations in rabbit corpus cavernosum smooth muscle cells were assayed as our previously described (Wu et al., 2001). In brief, cells were finally grown in 24-well plates (10^5 cells well^−1). […] Incubation was terminated by the addition of 6% trichloroacetic acid (TCA). Cell suspensions were sonicated and then centrifuged at 2500 g for 15 min at 4° C. Then, the supernatants were lyophilized and cGMP of each sample was determined using a commercially available radioimmunoassay kits (Amersham Pharmacia Biotech, Buckinghamshire, England).
as §2, with “Rabbit CCSMs (corpus” for “Rabbit corpus”, “smooth muscles)” for “smooth muscles”, “DMEM” for “DMEM (Dulbecco's modified Eagle's medium)”, “(Moreland” for “(Moreland R. B.”, “al.,” for “al., J Urol., 153, 826–834,”
Measurement of intracellular cyclic GMP content Intracellular cGMP concentrations in rabbit CCSM cells were assayed as our previously described (Wu et al., 2001). In brief, cells were finally grown in 24-well plates (10^5 cells well^−1). […] Incubation was terminated by the addition of 6% trichloroacetic acid (TCA). Cell suspensions were sonicated and then centrifuged at 2500 g for 15 min at 4° C. […]

[4] = system: PDE (phosphodiesterase) in human platelets; assay: Phosphodiesterase assay, soluble PDE from human platelets, cyclic GMP substrate; type: biochemical; settings: at 100 μM, n=3
Procedure: Phosphodiesterase assay. Human platelets were isolated from whole blood using 50 mM Tris-HCl containg 5 mM MgCl2 (pH 7.5) and centrifuged to prepare platelet rich plasma. Washed human platelets were resuspended in 50 mM Tris-HCl containg 5 mM MgCl2 (pH 7.5). Platelets were then disrupted by sonicatio, and soluble PDE preparation was obtained by ultracentrifugation 105000 g for 60 min (4° C). […] After 20 min at 37° C., the samples were heated to 100° C. for 2 min. Ophiophagus Hannah snake venom (10 mg/ml, 10 μl) was then added and incubated at 37 C. for 10 min to convert the 5-GMP to the unchanged nucleosides, guanosine. An ion-exchange resin (200 μl) was added to bind all uncoverted cyclic GMP. After centrifuging, the supernatant was removed for determination in a liquid scintillation counter.

[5] = Learning and memory behavioral tasks (Morris water maze, passive inhibitory and active avoidance, rotorod); type: in vivo
Description: Long-term potentiation (LTP) is a potential cellular mechanism underlying learning and memory. Nitric oxide (NO) acts as a retrograde messenger and its downstream effectors are also involved in the modulation of synaptic plasticity in various brain regions such as hippocampus, amygdala, cerebellum, brain stem, cortex etc. Although nitric oxide (NO) is thought to affect synaptic potentiation in various brain regions, the NO-cGMP-PKG pathway involved in memory acquisition in living animals is still unclear. […]. The stimulating parameter which induced long-lasting depression was shifted to a lower frequency by theophylline-based derivative. Furthermore, simultaneous perfusion of theophylline-based derivatives with different concentration of NO donor induced LTP or LTD when the hippocampal slices were stimulated at a frequency as low as 0.02 Hz. The effects of theophylline-based derivative on the behavioral tasks in the following anomal models were examined: Morris water maze, passive inhibitory and active avoidance tests, and rotorod test. […] KMUP-1 injected (1 mg/kg,i.p.) 10 min before the training shortened the escape latency in water maze, increased the retention scores in passive inhibitory avoidance task, decreased the retention time in active avoidance test, and enhanced the motor coorfination in the examination of rotorod. […] YC-1 thus enhanced LTP, learning and memory in an NO-cGMP-PKG-dependent pathway and is a promising drug to enhance learning and memory in human being.

rabbit aortic rings = assay: Relaxation of phenylephrine-precontracted rabbit aortic rings; type: cell-based
[6] = system: rabbit aorta smooth muscle cells; assay: cGMP levels in rabbit aorta smooth muscle cells; type: cell-based; settings: for guanosine 3′,5′-cyclic monophosphate levels: 0.1, 1.0, 10, 100 μM, in the presence of IBMX (100 μM)
[7] = in the presence of IBMX (0.5 μM)
[8] = 0.2 mg/kg intracavernous injection
[9] = 0.4 mg/kg intracavernous injection
[10] = 0.6 mg/kg intracavernous injection
[11] = 1 mg/kg i.p. 10 min before the training
[12] = pretreatments with methylene blue (100 μM) and ODQ (10 μM)

| Structure (SMILES) | relaxant activities in rabbit CCSMs [1] | effect of combination with IBMX on CCSMs relaxations [1] | −log EC50 of relaxation [1, 7] | DT, duration of tumescence [2, 8] [min] | ΔICP, peak increased intracavernous pressure [2, 8] [mmHg] | DT, duration of tumescence [2, 9] [min] | ΔICP, peak increased intracavernous pressure [2, 9] [mmHg] | DT, duration of tumescence [2, 10] [min] | ΔICP, peak increased intracavernous pressure [2, 10] [mmHg] | intracavernous pressure, dose dependence [2] | cGMP levels [3] | inhibition of PDE activity [4] [%] | guanosine 3′,5′-cyclic monophosphate levels [3] | guanosine 3′,5′-cyclic monophosphate levels [6] | further results |
| --- | --- | --- | --- | --- | --- | --- | --- | --- | --- | --- | --- | --- | --- | --- | --- |
| Cn1c(=O)c2c(ncn2CCN2CCN(c3ccccc3Cl)CC2)n(C)c1=O [KMUP-1, 7-[2-[4-(2-chlorophenyl)piperazinyl]-ethyl]-1,3-dimethylxanthine] | concentration-dependent relaxant activities | additive effect | 8.65±0.14 | 15 ± 2.24 | 30 ± 5.25 | 27 ± 2.05 | 55 ± 6.21 | 35 ± 3.45 | 67 ± 12.32 | dose-dependent elevations | increased the cGMP levels | 29±3.1 |  |  | relaxation in endothelium-denuded (EC−) corpus cavernosum smooth muscle ([1]; 0.001–10 μM, endothelium-denuded): concentration-dependent relaxations; −log EC50 of relaxation ([1]; after K+ channel blocker TEA (10 mM)): 5.37±0.05; −log EC50 of relaxation ([1]; after KATP channel blocker glibenclamide (1 μM)): 6.57±0.15; −log EC50 of relaxation ([1]; after NOS inhibitor L-NAME (100 μM)): 6.51±0.08; −log EC50 of relaxation ([1]; after apamin (1 μM)): 5.85±0.11; −log EC50 of relaxation ([1]; after charybdotoxin (0.1 μM)): 5.63±0.09; −log EC50 of relaxation ([1]; after sGC inhibitor ODQ (1 μM)): 6.79±0.12; −log EC50 of relaxation ([1]; after voltage-dependent K+ channel blocker 4-AP (100 μM)): 5.83±0.17; relaxation of corpus cavernosum smooth muscle strips ([1]; at 10 μM): completely relaxed; −log EC50 of relaxation ([1]; endothelium-intact (EC+), phenylephrine (10 μM)-precontracted, no blocker): 7.19±0.09; relaxation in the presence of high K+ ([1]; high K+ (60 mM), 0.001–10 μM): great reduction of relaxation; HR (heart rate) ([2]; rabbit, in vivo): unchanged; SAP (systemic arterial pressure) ([2]; rabbit, in vivo): unchanged; cGMP levels after ODQ pretreatment ([3]; pretreatment with ODQ (10 μM)): inhibited; escape latency in water maze [5, 11]: shortened; motor coordination in rotorod [5, 11]: enhanced; retention scores in passive inhibitory avoidance task [5, 11]: increased; retention time in active avoidance test [5, 11]: decreased; retention of passive inhibitory avoidance ([5]; given 30 min after foot-shock): did not affect |
| COc1ccccc1N1CCN(CCn2cnc3c2c(=O)n(C)c(=O)n3C)CC1 [KMUP-2, 7-[2-[4-(2-methoxyphenyl)piperazinyl]-ethyl]-1,3-dimethylxanthine] | concentration-dependent relaxant activities | additive effect | 8.37±0.03 |  |  |  |  |  |  |  |  | 21±2.1 | significantly increased | significantly increased | −log EC50 of relaxation ([1]; compound alone, IBMX additive experiment (FIG. 6)): 7.58±0.02; cGMP levels after methylene blue and ODQ pretreatments [3, 12]: significantly inhibited; −log EC50 of relaxation in aortic rings (rabbit aortic rings; KMUP-2 (0.01, 0.05, 0.1 μM) alone): 5.69±0.02; −log EC50 of relaxation in aortic rings (rabbit aortic rings; [7]): 6.61±0.12; cGMP levels after methylene blue and ODQ pretreatments [6, 12]: significantly inhibited |
| CCCc1nn(C)c2c(=O)[nH]c(-c3cc(S(=O)(=O)N4CCN(C)CC4)ccc3OCC)nc12 [sildenafil, reference compound] |  |  |  | 19 ± 3.32 | 28 ± 3.21 | 24 ± 3.45 | 32 ± 4.05 | 28 ± 4.59 | 40 ± 11.05 | dose-dependent elevations | increased the cGMP levels |  | significant elevation | significant elevation |  |
